The test concerns eNOS promoter. The test can be described thus: Activation of eNOS transcription (eNOS promoter-luciferase reporter in human endothelial cell line). It counts as cell-based. The settings on record: human endothelial cell line stably transfected with eNOS promoter-luciferase construct, 18 h incubation, EC50 determined graphically; read-out: EC50 values of transcription induction ratios (TIR). As to the method:
A) Activation of eNOS Transcription
Activation of eNOS transcription was measured as described in detail by Li et al., “Activation of protein kinase C alpha and/or epsilon enhances transcription of the human endothelial nitric oxide synthase gene”, Mol. Pharmacol. 53 (1998), 630-637. Briefly, a 3.5 kB long fragment 5′ of the starting codon of the eNOS gene was cloned, sequenced and cloned in firefly luciferase expression plasmids to monitor activation of the eNOS promoter by reporter gene activity. A human endothelial cell line stable transfected and expressing this promoter-reporter construct was used for compound testing. Cells were incubated for 18 h with the compounds.
All compounds were dissolved in sterile dimethyl sulfoxide (DMSO). A final concentration of 0.5% DMSO in complete medium was allowed. Induction of reporter gene expression in these cells was measured using a standard luciferase assay system (Promega, Cat. No. E150) according to the manufacturer's instructions. Luciferase induction in cells incubated with compounds were compared to those incubated with solvent alone. The ratio of both activities (transcription induction ratio, TIR) was plotted as a function of compound concentration. Typically, TIR values started at low concentrations at a ratio of 1, indicating no compound effect, and extended up to a maximum TIR value TIR(max) which indicates the increase of the eNOS transcription. EC50 values of transcription induction ratios as a function of compound concentration were determined graphically.
(Reporter assays use an easily measured gene product as a stand-in for the process of interest.)
Take `CCOC(=O)c1sc2nc(-c3ccc(F)cc3)cn2c1C` [Example 1, 6-(4-Fluoro-phenyl)-3-methyl-imidazo[2,1-b]thiazole-2-carboxylic acid ethyl ester]: the EC50 was less than 500 nM.

On to `CCOC(=O)c1sc2nc(-c3cccc(Cl)c3)cn2c1C` [Example 2, 6-(3-Chloro-phenyl)-3-methyl-imidazo[2,1-b]thiazole-2-carboxylic acid ethyl ester], for which the EC50 is less than 500 nM.

Take `CCOC(=O)c1sc2nc(-c3ccc(C)cc3)cn2c1C` [Example 3, 3-Methyl-6-p-tolyl-imidazo[2,1-b]thiazole-2-carboxylic acid ethyl ester]: the EC50 was less than 500 nM.

In the case of `Cc1c(C(=O)NC(C)(C)C)sc2nc(-c3ccc(F)cc3)cn12` [Example 10, 6-(4-Fluoro-phenyl)-3-methyl-imidazo[2,1-b]thiazole-2-carboxylic acid tert-butylamide], the EC50 was less than 500 nM.

With `Fc1ccc(-c2cn3cc(Br)sc3n2)cc1` [Example 22, 2-Bromo-6-(4-fluoro-phenyl)-imidazo[2,1-b]thiazole], the EC50 was less than 500 nM.

Values taken from patent US8080569B2, “Imidazo[2,1-b]thiazoles and their use as pharmaceuticals” (Sanofi-Aventis, priority 2006, dated 2011).
